System: hESC-derived PAX2-nGFP+ otic progenitors
Experiment: ventral/dorsal otic marker expression in otic progenitors (D20 scRNA-seq, D25 immunofluorescence)
Format: cell-based, human
Procedure: PAX2-2A-nGFP/POU4F3-2A-ntdTomat hESCs (passages 22-50) were maintained and passaged in Essential 8 Flex Medium (Thermo Fisher, A2858501) supplemented with 100 μg/ml Normocin (E8fn) on recombinant human Vitronectin-N(Thermo Fisher, A14700)-coated 6-well plates. Human inner ear organoids were derived from hESCs based on the inventors' previous protocol 8.10 with major modifications. Briefly, hESCs were dissociated with StemPro Accutase (Thermo Fisher, A1110501) and distributed at 3500 cells per well onto low-adhesion 96-well U-bottom plates in 100 μL E8fn containing 20 μM Y-27632 (Stemgent, 04-0012-02) and forcibly aggregated at 120 g for 5 minutes. 100 μL of E8fn was added to each well after >4 h of incubation. Induction of non-neural epithelium occurred following 48 h of aggregation, marking differentiation day 0, as follows: aggregates were washed extensively in DMEM:F12 with HEPES buffer (DFH) (Thermo Fisher, 11320033) and transferred to new 96-well U-bottom plates in 100 μL of E6 medium (Thermo Fisher, A1516401) with Normocin (E6n) containing 4 ng mL^−1 FGF-2 (StemCell Technologies, 780003), 10 μM SB-431542 (Stemgent, 04-0010-05), and 2% growth factor reduced (GFR) Matrigel (Corning, 354230). On day 3 of differentiation, 25 μL of E6n containing 50 ng/ml FGF-2 and 200 nM LDN-193189 (Stemgent, 04-0074-02) was added to each well. […]

c1ccc2c(Oc3nc(Nc4ccc(N5CCOCC5)cc4)c4ncn(C5CCCCC5)c4n3)cccc2c1 [PUR, 9H-Purin-6-amine, 9-cyclohexyl-N-[4-(4-morpholinyl)phenyl]-2-(1-naphthalenyloxy)-]
ventral otic marker expression (D20-D25 organoids): not sufficient
expression of SHH pathway genes SULF1, LRP2, GAS1, PTCH1 (D20 otic progenitors): attenuated

From patent US20250034523A1, “METHODS OF GENERATING HUMAN COCHLEAR HAIR CELLS” (THE TRUSTEES OF INDIANA UNIVERSITY, priority 2021, published 2025)
